Results on 24 compounds are retold here after patent US20100130725A1, “METHODS FOR CHARACTERIZING MOLECULES” (priority 2008, published 2010).

Format in all cases: cell-based, human
Test [1] deals with A549 cells. In words: Epic RWG biosensor DMR assay, agonist mode (primary profile), A549 cells. The note with it: for DMR signal triggered by the ligand (primary profile), second ligand panel: FIG. 8: 40 μM pinacidil, 250 μg/ml poly(I:C), 8 μM PMA, 16 μM forskolin. The procedure: All cell lines were obtained from American Type Cell Culture (Manassas, Va.). The cell culture medium was as follows: Dulbecco's modified Eagle's medium (DMEM) supplemented with 10% fetal bovine serum (FBS), 4.5 g/liter glucose, 2 mM glutamine, and antibiotics for human epidermoid carcinoma A431 and human lung carcinoma A549.
Cells were typically grown using ˜1 to 2×10^4 cells per well at passage 3 to 15 suspended in 50 μl of the corresponding culture medium in the biosensor microplate, and were cultured at 37° C. under air/5% CO2 for ˜1 day. Except for A431, which was subject to ˜20 hr starvation through continuous culture in the serum-free DMEM, the other cell types were directly assayed without starvation. The confluency for all cells at the time of assays was ˜95% to 100%.
Epic® wavelength interrogation system (Corning Inc., Corning, N.Y.) was used for whole cell sensing. This system consists of a temperature-control unit, an optical detection unit, and an on-board liquid handling unit with robotics. The detection unit is centered on integrated fiber optics, and enables kinetic measures of cellular responses with a time interval of ˜15 sec.
The RWG biosensor is capable of detecting minute changes in local index of refraction near the sensor surface. Since the local index of refraction within a cell is a function of density and its distribution of biomass (e.g., proteins, molecular complexes), the biosensor exploits its evanescent wave to non-invasively detect ligand-induced dynamic mass redistribution in native cells. The evanescent wave extends into the cells and exponentially decays over distance, leading to a characteristic sensing volume of ˜150 nm, implying that any optical response mediated through the receptor activation only represents an average over the portion of the cell that the evanescent wave is sampling. The aggregation of many cellular events downstream the receptor activation determines the kinetics and amplitudes of a ligand-induced DMR.
(§1) For biosensor cellular assays, molecule solutions were made by diluting the stored concentrated solutions with the HBSS (1× Hanks balanced salt solution, plus 20 mM Hepes, pH 7.1), and transferred into a 384 well polypropylene molecule storage plate to prepare a molecule source plate. Both molecule and marker source plates were made separately when a two-step assay was performed. In parallel, the cells were washed twice with the HBSS and maintained in 30 μl of the HBSS to prepare a cell assay plate. Both the cell assay plate and the molecule and marker source plate(s) were then incubated in the hotel of the reader system. After ˜1 hr of incubation the baseline wavelengths of all biosensors in the cell assay microplate were recorded and normalized to zero. Afterwards, a 2 to 10 minute continuous recording was carried out to establish a baseline, and to ensure that the cells reached a steady state. Cellular responses were then triggered by pipetting 10 μl of the marker solutions into the cell assay plate using the on-board liquid handler.
First, a panel of ligands targeting GPCRs, each at 10 μM concentration, was chosen, and examined their actions on the A549 cells using DMR measurements with the Epic® system. The ligand panel included the four P2Y agonists ADP, […], UTP and UDP, the adenosine receptor agonist adenosine, the calcium sensing receptor agonist spermine, the histamine receptor agonist histamine, the adrenergic receptor agonist epinephrine, the free fatty acid receptor agonist elaidic acid, the lipoxin receptor agonist lipoxin A4, the bradykinin receptor agonist bradykinin, the adrenodullin receptor agonist adrenodullin, the PAR1 agonist SFLLR-amide, the angiotensin receptor agonist angiotensin, the neuropeptide Y receptor agonist neuropeptide Y, and the PAR2 agonist SLIGKV-amide.
Next, a second ligand panel was chosen, and examined their actions on the A549 cells using DMR measures with the Epic® system.

For test [2], the system named is quiescent A431 cells. The test can be described thus: Epic DMR two-step assay, antagonist mode: modulation of marker-induced DMR signals in quiescent A431 cells. The procedure:
as §1
Next, the target specificity and signaling pathway of EGF was probed using a second set of assays.
A first panel of markers was contacted with quiescent A431 cells at concentrations close to each of the marker's EC80 or EC100, and DMR measurements were obtained with and EPIC® system. This panel of markers was selected from a library of markers identified in A431 cells using Epic® cellular assays. This panel included epidermal growth factor (EGF), epinephrine, nicotinic acid, and histamine. Each of these markers leads to a wide array of cell signaling. […] Each DMR signal represents an averaged response of 4 replicates.
A DMR index was generated for four ligand molecules. Quiescent A431 and proliferating A549 cells were separately exposed to the ligand molecules for about 1 hr to generate their primary profiles, followed by stimulation with each marker at a fixed concentration (as mentioned in FIGS. 7 and 8) for another 1 hr or so to generate secondary profiles of the molecule against the panels of markers in both types of cells. Next, one or more specific DMR parameters were chosen as a readout for plotting the DMR index of the molecule. For the pinacidil DMR response in A549, the amplitude of the N-DMR (i.e., the amplitude 30 min after stimulation) was chosen. For the poly(I:C) DMR response in A549, the amplitude of the late DMR (i.e., the amplitude 50 min after stimulation) was chosen. For the PMA response in A549, the late DMR amplitude (i.e., the amplitude 50 min after stimulation) was chosen.

Test [3] has as its system A549 cells. The test can be described thus: Epic DMR two-step assay, antagonist mode: modulation of marker-induced DMR signals in A549 cells. The note with it: molecule 10 μM. The protocol:
as §1
A second panel of markers was contacted with A549 cells at concentrations close to each of the marker's EC80 or EC100, and DMR measurements were obtained with and EPIC® system. This panel included poly(I:C), SLIGKV-amide, pinacidil, PMA, histamine, and forskolin. Each of these markers also leads to a wide array of cell signaling. Using Epic® cellular assays in conjunction with chemical biology and cell biology approach similar to the EGFR DMR mentioned above, we have determined the pathway(s) and network interaction(s) that is accounted for each marker-induced DMR signal in A549 cells. The main observations are summarized below. Poly(I:C) is an agonist for endogenous Toll-like receptor(s) in A549, whose activation leads to IKK pathway and AKT pathway. SLIGKV-amide is an agonist for endogenous protease activated receptor subtype 2 (PAR2) in A549, whose activation leads to Gq-, Gi- and G12/13-mediated signaling. Pinacidil is an opener for endogenous ATP-sensitive potassium (KATP) ion channel in A549, whose activation leads to Rho- and JAK-mediated signaling. PMA is an activator for protein kinase C (PKC), whose activation leads to PKC pathway and degranulation. Histamine is a natural agonist for endogenous histamine receptors (dominantly H1R, and possibly H3R), whose activation leads to dual signaling, possibly through Gq and Gi mediated signaling in A549. Forskolin is an activator for adenylyl cyclases, whose activation leads to cAMP-PKA pathway in A549. […] Each DMR signal represents an averaged response of 4 replicates.
A DMR index was generated for four ligand molecules. Quiescent A431 and proliferating A549 cells were separately exposed to the ligand molecules for about 1 hr to generate their primary profiles, followed by stimulation with each marker at a fixed concentration (as mentioned in FIGS. 7 and 8) for another 1 hr or so to generate secondary profiles of the molecule against the panels of markers in both types of cells. Next, one or more specific DMR parameters were chosen as a readout for plotting the DMR index of the molecule. For the pinacidil DMR response in A549, the amplitude of the N-DMR (i.e., the amplitude 30 min after stimulation) was chosen. For the poly(I:C) DMR response in A549, the amplitude of the late DMR (i.e., the amplitude 50 min after stimulation) was chosen. For the PMA response in A549, the late DMR amplitude (i.e., the amplitude 50 min after stimulation) was chosen. For the SLIGKV-amide DMR response in A549, the P-DMR amplitude (i.e., the amplitude 20 min after stimulation) was chosen. For the forskolin response in A549 cells, the P-DMR amplitude (i.e., the amplitude 50 min after stimulation) was chosen. For the histamine response in A549, both the early DMR amplitude (i.e., amplitude 10 min after stimulation) and the late response (i.e., the amplitude 30 min after stimulation) were chosen. […]

The mark [4] stands for this setting: quiescent A431, ligand 10 μM, about 1 hr pretreatment, 32 nM EGF.

Several values for one entry are separate records, joined by “and”; a condition that tells them apart may be missing. Equal entries are not always repeated. Where two headings read alike, the source gives them in different places. Ends that are not written are not given here.

Take `Nc1ncnc2c1ncn2[C@@H]1O[C@H](COP(=O)(O)OP(=O)(O)O)[C@@H](O)[C@H]1O` [ADP]: the “DMR signal triggered by the ligand (primary profile)” value in test [1] (A549 cells, ligand 10 μM) was “robust DMR signals”. For `COc1cc2ncnc(Nc3cccc(Cl)c3)c2cc1OC` [AG1478], the “modulation of the EGF-induced DMR signal” value in test [2] (setting [4]) was “almost completely blocked”.

For `Nc1ncnc2c1ncn2[C@@H]1O[C@H](COP(=O)(O)OP(=O)(O)OP(=O)(O)O)[C@@H](O)[C@H]1O` [AT], in test [1] (A549 cells, ligand 10 μM), the “DMR signal triggered by the ligand (primary profile)” value is listed as “robust DMR signals”. Regarding `CNCCNS(=O)(=O)c1cccc2cnccc12` [H8], in test [2] (A431, molecule 10 μM), the “modulation of the epinephrine response” value is “less effective at attenuating” and the “modulation of the histamine response” value is listed as “less effective at attenuating”. For `O=S(=O)(c1cccc2cnccc12)N1CCCNCC1` [HA1077], in test [3], the “modulation of the PMA response” value was “significantly potentiated”, the “modulation of the histamine response” value is recorded as “significantly potentiated” and the “modulation of the pinacidil response” value is listed as “almost completely attenuated”. Besides, in test [3] (8 μM PMA, amplitude 50 min after stimulation), the “modulation of PMA-induced DMR response (late DMR amplitude)” value was “+36%”. For the same compound, the “modulation of SLIGKV-amide-induced DMR response (P-DMR amplitude)” value in test [3] (8 μM SLIGKV-amide, amplitude 20 min after stimulation) is reported as “+22%”. In test [3] (10 μM histamine, amplitude 10 min after stimulation), the “modulation of histamine-induced DMR response (early P-DMR)” value is listed as “+26%”. The “modulation of histamine-induced DMR response (late P-DMR)” value in test [3] (10 μM histamine, amplitude 30 min after stimulation) is reported as “+55%”. In test [3] (16 μM forskolin, amplitude 50 min after stimulation), the “modulation of forskolin-induced DMR response (P-DMR amplitude)” value is given as “+18%”. The “modulation of poly(I:C)-induced DMR response (late DMR amplitude)” value in test [3] (250 μg/ml poly(I:C), amplitude 50 min after stimulation) is reported as “+18%”. Moreover, the “modulation of pinacidil-induced DMR response (N-DMR amplitude)” value in test [3] (~1 hr pretreatment, 40 μM pinacidil, amplitude 30 min after stimulation) was −86% and −95%. `CCCCCCCCCCCCCC(=O)O[C@@H]1[C@@H](C)[C@@]2(O)[C@@H](C=C(CO)C[C@]3(O)C(=O)C(C)=C[C@@H]23)[C@@H]2C(C)(C)[C@]12OC(C)=O` [PMA, Phorbol 12-myristate 13-acetate]: the “DMR signal triggered by the ligand (primary profile), second ligand panel” value (from here on “DMR signal triggered … second ligand panel”) in test [1] (A549 cells) was “robust DMR signals”. For `N#CC(=C(/N)Sc1ccccc1N)/C(C#N)=C(\N)Sc1ccccc1N` [U0126], the “modulation of the EGF-induced DMR signal” value in test [2] was “significantly and selectively attenuated the N-DMR and the RP-DMR signals”. Regarding `O=c1ccn([C@@H]2O[C@H](COP(=O)(O)OP(=O)(O)O)[C@@H](O)[C@H]2O)c(=O)[nH]1` [UDP], the “DMR signal triggered by the ligand (primary profile)” value in test [1] (A549 cells, ligand 10 μM) is “robust DMR signals”.

Consider `O=c1ccn([C@@H]2O[C@H](COP(=O)(O)OP(=O)(O)OP(=O)(O)O)[C@@H](O)[C@H]2O)c(=O)[nH]1` [UTP], for which the “DMR signal triggered by the ligand (primary profile)” value in test [1] (A549 cells, ligand 10 μM) is “robust DMR signals”. `Nc1ncnc2c1ncn2[C@@H]1O[C@H](CO)[C@@H](O)[C@H]1O` [adenosine]: in test [1] (A549 cells, ligand 10 μM), the “DMR signal triggered by the ligand (primary profile)” value was “robust DMR signals”. Regarding `CCCCCCCC/C=C/CCCCCCCC(=O)O` [elaidic acid], the “DMR signal triggered by the ligand (primary profile)” value in test [1] (A549 cells, ligand 10 μM) is recorded as “robust DMR signals”. With `CNC[C@H](O)c1ccc(O)c(O)c1` [epinephrine], the “DMR signal triggered by the ligand (primary profile)” value in test [1] is on record as “robust DMR signals”. As for `NCCc1c[nH]cn1` [histamine], in test [1] (A549 cells, ligand 10 μM), the “DMR signal triggered by the ligand (primary profile)” value is listed as “robust DMR signals”. For the compound `CCCCC[C@H](O)/C=C/C=C\C=C\C=C\[C@@H](O)[C@@H](O)CCCC(=O)O` [lipoxin A4], in test [1] (A549 cells, ligand 10 μM), the “DMR signal triggered by the ligand (primary profile)” value was “robust DMR signals”. As for `CC(N/C(=N\C#N)Nc1ccncc1)C(C)(C)C` (stereo not shown) [pinacidil], the “DMR signal triggered … second ligand panel” value in test [1] (A549 cells) was “robust DMR signals”. `CC(=O)c1c(O)c(C)c(O)c(Cc2c(O)c3c(c(C(=O)/C=C/c4ccccc4)c2O)OC(C)(C)C=C3)c1O` [rottlerin]: the “modulation of the EGF-induced DMR signal” value in test [2] (setting [4]) is “specifically caused the truncation of the early P-DMR event, as well as part of the early N-DMR event”. For `NCCCNCCCCNCCCN` [spermine], in test [1] (A549 cells, ligand 10 μM), the “DMR signal triggered by the ligand (primary profile)” value was “robust DMR signals”.

In the case of BML-265, in test [2] (setting [4]), the “modulation of the EGF-induced DMR signal” value is reported as “almost completely blocked”. As for SFLLR-amide, the “DMR signal triggered by the ligand (primary profile)” value in test [1] (A549 cells, ligand 10 μM) is listed as “robust DMR signals”. Take SLIGKV-NH2: in test [1] (A549 cells, ligand 10 μM), the “DMR signal triggered by the ligand (primary profile)” value is listed as “robust DMR signals”. Consider “adrenodullin: adrenodullin receptor agonist (YRQSMNNFQGLRSFGCRFGTCTVQKLAHQIYQFTDKDKDNVAPRSKISPQGY; ends and bridges not checked; cysteine pairing not given here; UniProt P35318 95-146, looked up)”, for which, in test [1] (A549 cells, ligand 10 μM), the “DMR signal triggered by the ligand (primary profile)” value is “robust DMR signals”. As for angiotensin, the “DMR signal triggered by the ligand (primary profile)” value in test [1] (A549 cells, ligand 10 μM) is on record as “robust DMR signals”. Turning to neuropeptide Y, the “DMR signal triggered by the ligand (primary profile)” value in test [1] (A549 cells, ligand 10 μM) was “robust DMR signals”. As to poly(I:C), in test [1] (A549 cells), the “DMR signal triggered … second ligand panel” value is “robust DMR signals”.
